{"source": "patent US8633161B2", "about": "“Therapeutic agents for the treatment of leukemia” (The Ohio State University Research Foundation, priority 2005, dated 2014)", "key": {"[1]": {"system": "T315I BCR/ABL-transduced 32Dc13 cells", "format": "in vivo", "protocol": "(§1) We obtained FTY720 synthesized using previously published methods (see Budde, K., et al., First human trial of FTY720, a novel immunomodulator, in stable renal transplant patients. J Am Soc Nephrol, (2002) 13:1073-83). Cells in liquid culture and in methylcellulose colony assays were cultured in the presence of 2.5 μM FTY720. SCID mice were i.v. injected with 5×10^5 T315I BCR/ABL-transduced 32Dc13 cells and levels of BCR/ABL in the peripheral blood were assessed by nested reverse transcriptase PCR. Upon establishment of a leukemia-like disease, mice were i.p. injected daily with FTY720 (250 μg/mouse/day). The disease process was monitored weekly by nested reverse transcriptase PCR. Apoptosis was assessed by AnnexinV/PI staining on untreated vs. treated cells."}, "[2]": {"target": "T1, PP2A (Mus musculus, UniProt P63330)", "T1 construct": "endogenous in cells; host or cells: 32Dc13, 32D-BCR/ABL, 32D-BCR/ABL-T315I, 32D-p210 Y253H, BaF3-p210 T315I, K562, primary CML-BC CD34+ and NBM CD34+ cells", "experiment": "PP2A IP phosphatase assay on lysates of treated cells", "format": "cell-based", "settings": "FTY720 2.5 μM, BCR/ABL-transformed cell lines", "protocol": "PP2A phosphatase assays were carried out using the PP2A IP phosphatase assay kit (Upstate). Briefly, protein lysates (50 μg) in 100 μl of 20 mM HEPES (pH 7.0)/100 mM NaCl, 5 μg of PP2Ac antibody (Upstate), and 25 μl of Protein A-agarose were added to 400 μl of 50 mM Tris (pH 7.0)/100 mM CaCl2, and IPs were carried out at 4° C. for 2 hr. IPs were washed and used in the phosphatase reaction according to the manufacturer's protocol. Specificity of the PP2A assay was assessed by titration with okadaic acid and by ascertaining the absence of PP1a in the PP2A immunoprecipitates (Figure S2A). As internal control, the amount of immunoprecipitated PP2A was also monitored by anti-PP2Ac Western blots (Figure S2B)."}, "[3]": {"system": "Akt", "experiment": "Western blot of phosphorylated and total Akt", "format": "cell-based", "settings": "FTY720-treated 32D-BCR/ABL cells"}, "[4]": {"system": "primary CML-BC, p210-BCR/ABL and p190-BCR/ABL expressing cell lines", "experiment": "FTY720 in vitro: proliferation, clonogenic potential and apoptosis of BCR/ABL-expressing cells", "format": "cell-based", "settings": "2.5 μM FTY720, imatinib-sensitive and -resistant p210 and p190 cell lines", "from_the_text": "We studied the in vitro effect of FTY720 and derivative compounds on proliferation rate, clonogenic potential, and apoptosis in imatinib-sensitive and -resistant p210-BCR/ABL-expressing cells and p190-BCR/ABL-expressing cells. We then investigated the in vivo antileukemic potential of FTY720 in a mouse-model of imatinib-resistant CML-BC,\nas §1"}, "[5]": {"system": "BCR/ABL", "experiment": "Western blot of BCR/ABL activity (phosphotyrosine) and expression", "format": "cell-based", "settings": "upon treatment with FTY720 2.5 μM", "experimental": "Cells (10^7) were lysed in 100 μl of RIPA buffer (150 mM NaCl, 1% NP-40, 0.1% SDS, 50 mM Tris [pH 8.0]) supplemented with 1 mM PMSF, 25 μg/ml aprotinin, 10 μg/ml leupeptin, 100 μg/ml pepstatin A, 5 mM benzamidine, 1 mM Na3VO4, 50 mM NaF, 10 mM β-glycerol-phosphate. After incubation on ice (30 min), lysates were clarified (12,000×g, 15 min, 4° C.), denatured, and subjected to SDS-PAGE and Western blot (Iervolino et al., 2002). The antibodies used were goat polyclonal anti-SET(I2PP2A), -pp32(I1PP2A), and -hnRNP A1 and rabbit polyclonal anti-SHP-1 (Santa Cruz Biotechnology); monoclonal anti-Abl (Ab-3), -c-myc (Ab-2), -phosphotyrosine PY20 (Ab-4), and -pBAD^S112 (Ab-1) (EMD); monoclonal anti-hnRNP A1 (9H10) (G. Dreyfuss, University of Pennsylvania, Philadelphia, Pa.); monoclonal anti-GRB2 and -Rb (BD TransLab Inc.); monoclonal anti-HA (Covance); monoclonal anti-PP2Ac, clone 1D6 (Upstate Inc.); monoclonal anti-FLAG, clone M2 (Sigma); monoclonal anti-pERK^T202/Y204 and rabbit polyclonal anti-pAKT^T308, pSTAT5^Y694, -pJak2^Y1007/1008, -Jak2, -BAD, -Akt, and -ERK1/2 (Cell Signaling Technology Inc.); monoclonal anti-STATS (Invitrogen); rabbit monoclonal anti-pPP2A^Y307 (Epitomics); rabbit polyclonal anti-PR65/A (Calbiochem). IPs were carried out in 20 mM HEPES (pH 7.0), 150 mM NaCl, and 0.2% NP-40 supplemented with protease and phosphatase inhibitors. Lysates were precleared and immunoprecipitated with Ab-coated beads for 3 hr at 4° C. After washings, IPs were subjected to SDS-PAGE and Western blot."}, "[6]": {"system": "untransduced 32Dc13 cells and primary normal bone marrow cells", "experiment": "FTY720 on cells not expressing the oncogene", "format": "cell-based", "settings": "untransduced 32Dc13 cells and primary normal bone marrow cells from healthy donors; FTY720 2.5 μM", "protocol": "as §1"}}, "data": [{"compound": "CCCCCCCCc1ccc(CCC(N)(CO)CO)cc1", "note": "[FTY720]", "values": [{"measurement": "mice alive", "setting": "[1]; FTY720 250 μg/mouse/day i.p., after 20 weeks of treatment", "value": "more than 50%"}, {"measurement": "signs of toxicity", "setting": "[1]; control group that received only the drug", "value": "no signs of toxicity"}, {"measurement": "expression of PP2A protein levels", "setting": "[2]", "value": "without increased expression"}, {"measurement": "PP2A activity", "setting": "[2]; prior to induction of apoptosis", "value": "induces"}, {"measurement": "Akt phosphorylation/activity", "setting": "[3]", "value": "Dephosphorylation and inactivation"}, {"measurement": "growth, apoptosis and clonogenic potential", "setting": "[4]", "value": "significant growth inhibition, apoptosis and impaired clonogenic potential"}, {"measurement": "BCR/ABL activity", "setting": "[5]", "value": "inactivated"}, {"measurement": "inhibitory effect on cells not expressing the oncogene", "setting": "[6]", "value": "no effect was detected"}]}]}
